From patent US10596224B2, “Method of treating a wound, comprising the step of administering a composition including a substance P” (Biosolution Co., Ltd, priority 2016, dated 2020) come the findings set out here.

The subject of series [1] is full-thickness skin wound models. Put plainly: Wound size-reducing effect in skin wound mouse model. It counts as in vivo, BALB/c female mice. The following applies: 6 days after administration. The source says:
(§1) Commercially available wound healing agents, Madecassol care ointment (Dongguk Pharmaceuticals, Korea) and Easyef cell regenerating ointment (Daewoong Pharmaceuticals) were used as positive control groups.
(§2) In detail, 7-week-old BALB/c female mice (DooYeol Biotech) were acclimated for 1 week, and then anesthetized by an intraperitoneal injection of a mixture of Ketamine and rumpun. The dorsal hair was removed using an electric razor and a hair removal cream (Veet). Povidone and 70% ethanol were used to disinfect the area from which the epidermis was to be removed, and a 5-mm biopsy punch was used to apply a full-thickness wound on both sides of the lower buttocks, while avoiding the spine of the mouse. To prevent spontaneous wound contraction by the superficial muscle of the mouse, a silicone ring with an outer diameter of 15 mm and an inner diameter of 8 mm was attached around the wounded area using suture threads.
Thereafter, to the wound site, phosphate buffered saline as the negative control was administered, and Madecassol care and Easyef cell regenerating ointments as the positive controls were administered. […]
In detail, the reduced wound size was calculated as the size of wound area by analyzing an image of the wound at 0 day and 6 days after administration of the novel formulations. The size of wound area was quantified by using Photoshop.

For series [2] the test system is unchanged. The series can be described thus: Angiogenic effect in skin wound mouse model. The following applies: biopsy 6 days after administration, FIG. 5. It counts as in vivo, BALB/c female mice. The source says: In detail, increased angiogenesis was confirmed by examining an image of angiogenesis on the skin tissue with the naked eye after biopsy of the skin tissue of the wound area 6 days after administration of the novel formulations.

For series [3] the test system is unchanged. Put plainly: Epidermal regeneration effect (epidermal gaps, H&E) in skin wound mouse model. The settings on record: 6 days after administration, compared to the control groups. It counts as in vivo, BALB/c female mice.
Excerpt: as §1, §2
(§3) Thereafter, to the wound site, phosphate buffered saline as the negative control was administered, and Madecassol care and Easyef cell regenerating ointments as the positive controls were administered. […] Specifically, each 30 μl of SP and each novel formulations were administered to the full-thickness wound once a day for 5 days.

For series [4] the test system is unchanged. Put plainly: Granulation tissue maturation (H&E) in skin wound mouse model. The following applies: 6 days after administration, compared to the negative control group. It counts as in vivo, BALB/c female mice.
Excerpt: as §1, §2, §3

Series [5] can be described thus: Stability of SP over time in cell growth media KGM and FGM (SP ELISA kit). The following applies: stored in KGM and FGM media, 0-24 hrs. It counts as physicochemical. The protocol: SP and SP of SP+HEC+polysorbate 80+sodium thiosulfate formulation were stored in cell growth media for human epithelial keratinocyte (HEK) culture (keratinocyte growth media; KGM) and human dermal fibroblast (HDF) culture (fibroblast growth media; FGM).
Each sample was taken out of the media after a predetermined period of time (0 hr, 3 hrs, 6 hrs, 12 hrs and 24 hrs), and diluted with phosphate buffered saline, and then the SP content in each sample was analyzed using SP ELISA kit.
A general note: ELISA stands for enzyme-linked immunosorbent assay.

Series [6] can be described thus: Stability of SP at different storage temperatures (SP ELISA kit). It counts as physicochemical. The settings on record: stored at 60° C., 37° C., RT, and 4° C. for 4 weeks. On the procedure: Further, it was examined with respect to whether SP stability in each sample was maintained at different temperatures. […] The samples before storage were used as control groups. SP stability was analyzed using SP ELISA kit.

The subject of series [7] is human dermal fibroblast cells. The settings on record: for cell proliferation rate: 48 hours, MTT.
Protocol: The cell proliferative effect of SP was analyzed by MTT assay.
In detail, 100 μl of a human dermal fibroblast cell suspension of 3×10^4 CFU/ml was put in a 96-well culture plate, and incubated for 24 hours. FGM medium (fibroblast growth medium; fibroblast basal medium containing hFGF-B, insulin, fetal bovine serum (FBS), gentamicin, and amphotericin-B) were removed, and then 180 μl of fresh FGM medium was dispensed into each well, and then 20 μl of SP diluted with phosphate buffered saline (PBS) was inoculated by varying its concentration (0.1, 1, 5, 10, 50, and 100 μg/ml).
Meanwhile, 20 μl of phosphate buffered saline was used as a negative control group. After inoculation, cells were incubated at 37° C. for 48 hours, and then the medium, SP, and negative control group were removed. The cells were washed with the phosphate buffered saline three times. 90 μl of FGM medium was mixed with 10 μl of MTT solution (0.5 mg/ml), and treated to each well, and allowed to react at 37° C. for 4 hours.
Finally, the cells were washed with the phosphate buffered saline, and stirred in 150 μl of isopropyl alcohol solution for 10 minutes, and absorbance at 570 nm was measured.

Entries after “also recorded” stand apart in the source; their conditions may differ. Read-outs that look alike come from different tables or passages of the source.

Regarding `CSCC[C@H](NC(=O)[C@H](CC(C)C)NC(=O)CNC(=O)[C@H](Cc1ccccc1)NC(=O)[C@H](Cc1ccccc1)NC(=O)[C@H](CCC(N)=O)NC(=O)[C@H](CCC(N)=O)NC(=O)[C@@H]1CCCN1C(=O)[C@H](CCCCN)NC(=O)[C@@H]1CCCN1C(=O)[C@@H](N)CCCNC(=N)N)C(N)=O` [SP], the “size of the wound examined with the naked eye” value in series [1] was “no significant difference in the wound size; also recorded: slight difference”. In addition, in series [1] (30 μl once a day for 5 days, topical to wound), the “wound area (size of wound area quantified)” value was not below 40%. For the same molecule, the “angiogenesis on the skin tissue (naked eye)” value in series [2] is given as “insignificant”. Moreover, the epidermal gaps entry in series [3] is “about 60%”. In addition, in series [4], the granulation tissue maturation entry is recorded as “compact granulation tissue formation”. The “SP content over time (SP stability)” value in series [5] is on record as “reduction in the SP content over time”. For the same molecule, the “SP content according to temperature conditions (SP stability)” value in series [6] was “lower SP content than the SP+HEC+polysorbate 80+sodium thiosulfate formulation; also recorded: changes in the SP content according to temperature changes”. For the same molecule, in series [7], the cytotoxicity entry was “without cytotoxicity”. For the same molecule, the cell proliferation rate is listed as not below 200% in series [7] (SP 5 μg/ml) and not below 170% in series [7] (all concentration groups of 0.1 μg/ml to 100 μg/ml SP). Also, the “proliferation rate compared to the negative control group” value in series [7] (SP 5 μg/ml, negative control phosphate buffered saline) is recorded as not below 2.2 times.
